Assay results published in patent publication US6706663B2, “Herbicidal 3-heterocyclic substituted benzisothiazole and benzisoxazole compounds” (Wyeth, priority 2000, dated 2004).

Key:
[1] = tested on: IPOHE (Ipomoea hederacea); experiment: Preemergence herbicidal evaluation; type: in vivo, (L.) Jacq.; details: Rate 0.2500 kg/ha; preemergence; rated 4-5 weeks after treatment
Description: (§1) Results of herbicide evaluation are expressed on a rating scale (0-9). The scale is based upon a visual observation of plant stand, vigor, malformation, size, chlorosis and overall plant appearance as compared with a control.
(§2) The preemergence herbicidal activity of the test compounds of the present invention is exemplified by the following tests in which the seeds of a variety of monocotyledonous and dicotyledonous plants are separately mixed with potting soil and planted on top of approximately one inch of soil in separate pint cups. […] The treated cups are then placed on greenhouse benches, watered and cared for in accordance with conventional greenhouse procedures. From four to five weeks after treatment, the tests are terminated and each cup is examined and rated according to the rating system provided in Example 87. The plant species used and the compounds evaluated are the same as those shown in Example 87.

ORYSAT (Rice, Tebonnet) [2] = experiment: Postemergence herbicidal evaluation; type: in vivo, Oryza sativa, (L.) Tebonnet
Experimental: (§3) In the tests, seedling plants are grown in jiffy flats for about two weeks. […] After spraying, the plants are placed on greenhouse benches and are cared for in accordance with conventional greenhouse procedures. From four to five weeks after treatment, the seedling plants are examined and rated according to the rating system set forth below. Where more than one test is involved for a given compound, the data are averaged.
as §1

SETVI (Setaria viridis) [3] = experiment: Postemergence herbicidal evaluation; type: in vivo, (L.) Beau
Experimental: In the tests, seedling plants are grown in jiffy flats for about two weeks. The test compounds are dispersed in 50/50 acetone/water mixtures containing 0.5% TWEEN® 20, a polyoxyethylene sorbitan monolaurate surfactant of Atlas Chemical Industries, in sufficient quantities to provide the equivalent of about 0.0040 kg to 1.000 kg per hectare of active compound when applied to the plants through a spray nozzle operating at 40 psi for a predetermined time. After spraying, the plants are placed on greenhouse benches and are cared for in accordance with conventional greenhouse procedures. From four to five weeks after treatment, the seedling plants are examined and rated according to the rating system set forth below. Where more than one test is involved for a given compound, the data are averaged.
as §1

[4] = tested on: CASOB (Cassia obtusifolia); experiment: Postemergence herbicidal evaluation; type: in vivo, L.
Experimental: as §3, §1

[5] = tested on: CHEAL (Chenopodium album); experiment: Postemergence herbicidal evaluation; type: in vivo, L.
Experimental: as §3, §1

[6] = tested on: AMBEL (Ambrosia artemisifolia); experiment: Postemergence herbicidal evaluation; type: in vivo, L.
Experimental: as §3, §1

[7] = tested on: CASOB (Cassia obtusifolia); experiment: Preemergence herbicidal evaluation; type: in vivo, L.; details: Rate 0.2500 kg/ha; preemergence; rated 4-5 weeks after treatment
Description: as §1, §2

[8] = tested on: CHEAL (Chenopodium album); experiment: Preemergence herbicidal evaluation; type: in vivo, L.; details: Rate 0.2500 kg/ha; preemergence; rated 4-5 weeks after treatment
Description: as §1, §2

[9] = tested on: AMBEL (Ambrosia artemisifolia); experiment: Preemergence herbicidal evaluation; type: in vivo, L.; details: Rate 0.2500 kg/ha; preemergence; rated 4-5 weeks after treatment
Description: as §1, §2

[10] = tested on: IPOHE (Ipomoea hederacea); experiment: Postemergence herbicidal evaluation; type: in vivo, (L.) Jacq.
Experimental: as §3, §1

SETVI (Setaria viridis) [11] = experiment: Preemergence herbicidal evaluation; type: in vivo, (L.) Beau; details: Rate 0.2500 kg/ha; preemergence; rated 4-5 weeks after treatment
Description: as §1, §2

[12] = tested on: ECHCG (Echinochloa crus-galli); experiment: Preemergence herbicidal evaluation; type: in vivo, (L.) Beau; details: Rate 0.2500 kg/ha; preemergence; rated 4-5 weeks after treatment
Description: as §1, §2

ORYSAT (Rice, Tebonnet) [13] = experiment: Flooded paddy, post-transplant rice tolerance; type: in vivo, Oryza sativa, (L.) Tebonnet; details: flooded paddy, post-transplant rice; rate 0.1250 kg/ha; rated 3-4 weeks after treatment; 0-9 rating scale
Experimental: as §1
The tolerance of transplanted rice to post-transplanted herbicide application is determined as follows: two ten-day-old rice seedlings (cv. Tebonnet) are transplanted into silt loam soil in 32 oz. plastic containers with a diameter of 10.5 cm and no drainage holes. After transplanting, the containers are flooded and the water level is maintained at 1.5 to 3 cm above the soil surface. […] The treated containers are placed on greenhouse benches, watered such that the water level is maintained as stated above, and cared for in accordance with conventional greenhouse procedures.

[14] = tested on: CYPSE (Cyperus serotinus); experiment: Flooded paddy, preemergence weed control; type: in vivo, Rottb.; details: rate 0.1250 kg/ha, rated 3-4 weeks after treatment, 0-9 rating scale
Experimental: as §1
Preemergence herbicidal activity under flooded paddy conditions is determined as follows: plant seeds or propagating organs are planted in the top 0.5 cm of silt loam soil in 32 oz. plastic containers with a diameter of 10.5 cm and no drainage holes. Water is added to these containers and maintained at 1.5 to 3 cm above the soil surface for the duration of the experiment. The test compounds are applied as aqueous/acetone mixtures 50/50 v/v pipetted directly into the flood water to give the equivalent of about 0.0080 to 0.1250 kg/ha of active ingredient. The treated containers are placed on greenhouse benches and cared for in accordance with conventional greenhouse procedures. Three to four weeks after treatment, the test is terminated and each container is examined and herbicidal effect rated according to the rating system provided in Example 87.

ZEAMX (Corn, Field) [15] = experiment: Preemergence herbicidal evaluation; type: in vivo, Zea mays, L.; details: Rate 0.2500 kg/ha; preemergence; rated 4-5 weeks after treatment
Description: as §1, §2

ORYSAT (Rice, Tebonnet) [16] = experiment: Preemergence herbicidal evaluation; type: in vivo, Oryza sativa, (L.) Tebonnet; details: Rate 0.2500 kg/ha; preemergence; rated 4-5 weeks after treatment
Description: as §1, §2

[17] = tested on: MOOVA (Monochoria vaginalis); experiment: Flooded paddy, preemergence weed control; type: in vivo, Presl.; details: rate 0.1250 kg/ha, rated 3-4 weeks after treatment, 0-9 rating scale
Experimental: as §1
(§4) Preemergence herbicidal activity under flooded paddy conditions is determined as follows: plant seeds or propagating organs are planted in the top 0.5 cm of silt loam soil in 32 oz. plastic containers with a diameter of 10.5 cm and no drainage holes. Water is added to these containers and maintained at 1.5 to 3 cm above the soil surface for the duration of the experiment. […] The treated containers are placed on greenhouse benches and cared for in accordance with conventional greenhouse procedures.

[18] = tested on: SAGPY (Sagittaria pygmaea); experiment: Flooded paddy, preemergence weed control; type: in vivo, L.; details: rate 0.1250 kg/ha, rated 3-4 weeks after treatment, 0-9 rating scale
Experimental: as §1, §4

ZEAMX (Corn, Field) [19] = experiment: Postemergence herbicidal evaluation; type: in vivo, Zea mays, L.
Experimental: as §3, §1

[20] = tested on: TRZAWR (Wheat, Winter, cv Riband); experiment: Preemergence herbicidal evaluation; type: in vivo, Triticum aestivum; details: Rate 0.2500 kg/ha; preemergence; rated 4-5 weeks after treatment
Description: as §1, §2

GALAP (Galium aparine) [21] = experiment: Postemergence herbicidal evaluation; type: in vivo
Experimental: as §3, §1

[22] = tested on: ABUTH (Abutilon theophrasti); experiment: Preemergence herbicidal evaluation; type: in vivo, Medic.; details: Rate 0.2500 kg/ha; preemergence; rated 4-5 weeks after treatment
Description: as §1, §2

[23] = tested on: ECHORC (Echinochloa oryzoides); experiment: Flooded paddy, preemergence weed control; type: in vivo, Echinochloa oryzoides (Ard.) Fritsch.; details: rate 0.1250 kg/ha, rated 3-4 weeks after treatment, 0-9 rating scale
Experimental: as §1, §4

[24] = tested on: GLXMAW (Soybean, Williams); experiment: Postemergence herbicidal evaluation; type: in vivo, Glycine max, (L.) Merr. cv Williams
Experimental: as §3, §1

[25] = tested on: TRZAWR (Wheat, Winter, cv Riband); experiment: Postemergence herbicidal evaluation; type: in vivo, Triticum aestivum
Experimental: as §3, §1

[26] = tested on: ECHCG (Echinochloa crus-galli); experiment: Postemergence herbicidal evaluation; type: in vivo, (L.) Beau
Experimental: as §3, §1

CYPIR (Cyperus iria) = experiment: Flooded paddy, preemergence weed control; type: in vivo; details: rate 0.1250 kg/ha, rated 3-4 weeks after treatment, 0-9 rating scale
Experimental: as §1, §4

[27] = tested on: ABUTH (Abutilon theophrasti); experiment: Postemergence herbicidal evaluation; type: in vivo, Medic.
Experimental: as §3, §1

[28] = tested on: GLXMAW (Soybean, Williams); experiment: Preemergence herbicidal evaluation; type: in vivo, Glycine max, (L.) Merr. cv Williams; details: Rate 0.2500 kg/ha; preemergence; rated 4-5 weeks after treatment
Description: as §1, §2

GALAP (Galium aparine) [29] = experiment: Preemergence herbicidal evaluation; type: in vivo; details: Rate 0.2500 kg/ha; preemergence; rated 4-5 weeks after treatment
Description: as §1, §2

| Structure (SMILES) | IPOHE preemergence herbicidal rating [1] | CASOB preemergence herbicidal rating [7] | CHEAL preemergence herbicidal rating [8] | AMBEL preemergence herbicidal rating [9] | SETVI preemergence herbicidal rating (SETVI (Setaria viridis) [11]) | ECHCG preemergence herbicidal rating [12] | herbicidal rating, ORYSAT (rice tolerance) (ORYSAT (Rice, Tebonnet) [13]) | herbicidal rating, CYPSE [14] | ZEAMX preemergence herbicidal rating (ZEAMX (Corn, Field) [15]) | ORYSAT preemergence herbicidal rating (ORYSAT (Rice, Tebonnet) [16]) | herbicidal rating, MOOVA [17] | herbicidal rating, SAGPY [18] | TRZAWR preemergence herbicidal rating [20] | ABUTH preemergence herbicidal rating [22] | herbicidal rating, ECHORC [23] | herbicidal rating, CYPIR (CYPIR (Cyperus iria)) | GLXMAW preemergence herbicidal rating [28] | GALAP preemergence herbicidal rating (GALAP (Galium aparine) [29]) | Postemergence herbicidal rating, ORYSAT (ORYSAT (Rice, Tebonnet) [2]; rate 0.0620 kg/ha) | Postemergence herbicidal rating, SETVI (SETVI (Setaria viridis) [3]; rate 0.0620 kg/ha) | further results |
| --- | --- | --- | --- | --- | --- | --- | --- | --- | --- | --- | --- | --- | --- | --- | --- | --- | --- | --- | --- | --- | --- |
| Cn1cccc1-c1nsc2ccc(-n3c(=O)cc(C(F)(F)F)n(C)c3=O)cc12 [Compound 6, 1-methyl-3-[3-(1-methylpyrrol-2-yl)-1,2-benzisothiazol-5-yl]-6-(trifluoromethyl)uracil] | 9.0 | 0.0 | 9.0 | 9.0 | 8.0 | 9.0 | 3.0 | 9.0 | 5.0 | 2.0 | 9.0 | 4.0 | 2.0 | 9.0 | 2.0 | 9.0 | 4.0 |  |  |  | Postemergence herbicidal rating, ORYSAT (ORYSAT (Rice, Tebonnet) [2]; rate 0.1250 kg/ha): 3.0; Postemergence herbicidal rating, SETVI (SETVI (Setaria viridis) [3]; rate 0.1250 kg/ha): 0.0; Postemergence herbicidal rating, CASOB ([4]; rate 0.1250 kg/ha): 0.0; Postemergence herbicidal rating, CHEAL ([5]; rate 0.1250 kg/ha): 4.0; Postemergence herbicidal rating, AMBEL ([6]; rate 0.1250 kg/ha): 3.0; Postemergence herbicidal rating, IPOHE ([10]; rate 0.1250 kg/ha): 9.0; Postemergence herbicidal rating, ZEAMX (ZEAMX (Corn, Field) [19]; rate 0.1250 kg/ha): 5.0; Postemergence herbicidal rating, GALAP (GALAP (Galium aparine) [21]; rate 0.1250 kg/ha): 4.0; Postemergence herbicidal rating, GLXMAW ([24]; rate 0.1250 kg/ha): 7.5; Postemergence herbicidal rating, TRZAWR ([25]; rate 0.1250 kg/ha): 4.5; Postemergence herbicidal rating, ECHCG ([26]; rate 0.1250 kg/ha): 0.0; Postemergence herbicidal rating, ABUTH ([27]; rate 0.1250 kg/ha): 9.0 |
| Cn1c(C(F)(F)F)cc(=O)n(-c2ccc3snc(-c4cccnc4)c3c2)c1=O [Compound 11, 1-methyl-3-[3-(3-pyridyl)-1,2-benzisothiazol-5-yl]-6-(trifluoromethyl)uracil] | 7.0 | 9.0 | 9.0 | 9.0 | 9.0 | 8.0 | 3.0 | 0.0 | 5.5 | 5.0 | 9.0 | 0.0 | 4.0 | 9.0 | 5.0 | 9.0 | 7.5 | 9.0 | 3.5 | 7.0 | Postemergence herbicidal rating, CASOB ([4]; rate 0.0620 kg/ha): 1.0; Postemergence herbicidal rating, CHEAL ([5]; rate 0.0620 kg/ha): 8.0; Postemergence herbicidal rating, AMBEL ([6]; rate 0.0620 kg/ha): 9.0; Postemergence herbicidal rating, IPOHE ([10]; rate 0.0620 kg/ha): 9.0; Postemergence herbicidal rating, ZEAMX (ZEAMX (Corn, Field) [19]; rate 0.0620 kg/ha): 5.5; Postemergence herbicidal rating, GALAP (GALAP (Galium aparine) [21]; rate 0.0620 kg/ha): 6.0; Postemergence herbicidal rating, GLXMAW ([24]; rate 0.0620 kg/ha): 6.5; Postemergence herbicidal rating, TRZAWR ([25]; rate 0.0620 kg/ha): 3.5; Postemergence herbicidal rating, ECHCG ([26]; rate 0.0620 kg/ha): 0.0; Postemergence herbicidal rating, ABUTH ([27]; rate 0.0620 kg/ha): 9.0 |
| C[C@@H]1O[C@@H]1c1nsc2ccc(-n3c(=O)cc(C(F)(F)F)n(C)c3=O)cc12 [Compound 13, 3-[3-[(1R,2S)-1,2-epoxypropyl]-1,2-benzisothiazol-5-yl]-1-methyl-6-(trifluoromethyl)uracil] | 9.0 | 9.0 | 9.0 | 9.0 | 9.0 | 9.0 | 7.5 | 6.5 | 7.0 | 7.5 | 9.0 | 4.0 | 5.0 | 9.0 | 6.0 | 8.0 | 7.5 | 9.0 | 3.0 | 7.0 | Postemergence herbicidal rating, CASOB ([4]; rate 0.0620 kg/ha): 5.0; Postemergence herbicidal rating, CHEAL ([5]; rate 0.0620 kg/ha): 6.0; Postemergence herbicidal rating, AMBEL ([6]; rate 0.0620 kg/ha): 9.0; Postemergence herbicidal rating, IPOHE ([10]; rate 0.0620 kg/ha): 7.0; Postemergence herbicidal rating, ZEAMX (ZEAMX (Corn, Field) [19]; rate 0.0620 kg/ha): 5.0; Postemergence herbicidal rating, GALAP (GALAP (Galium aparine) [21]; rate 0.0620 kg/ha): 9.0; Postemergence herbicidal rating, GLXMAW ([24]; rate 0.0620 kg/ha): 7.0; Postemergence herbicidal rating, TRZAWR ([25]; rate 0.0620 kg/ha): 3.0; Postemergence herbicidal rating, ECHCG ([26]; rate 0.0620 kg/ha): 3.0; Postemergence herbicidal rating, ABUTH ([27]; rate 0.0620 kg/ha): 9.0 |
